Test results taken from patent publication US20220304957A1, “ANTI-CANCER COMPOSITIONS AND METHODS OF USE” (Board of Supervisors of Louisiana State University and …, priority 2019, published 2022).
Entries after “also recorded” stand apart in the source; their conditions may differ. Like-named read-outs stand apart in the source and are kept apart here.

Key:
[1] = test system: LN-229 human glioblastoma cells; settings: for cell death: 25 and 50 μM, 72- and 96-hour time points; for % cell death: 50 μM (single dose)
[2] = test system: PPAR responsive elements (PPRE); assay: PPAR luciferase assay (PPRE reporter) in HepG2 cells; assay type: cell-based; settings: 25 μM, 24 hrs
Description: (§1) Aliquots of 50 μM PP1 and FF in DMSO were added to 500 μl to heparinized human blood to a final concentration of 50 μM. Following incubation at 37° C. for the indicated time points, the samples were frozen at −80° C., and later prepared for HPLC-based detection of the compounds. Please note that FF is converted to FA in the presence of human blood. […] Data represent average values with standard deviation (n=3). panel B: Water solubility. FF and PP1, were added to water to a final concentration of 50 mM and sonicated in an ultrasonic bath (Branson 1510 Digital Heated Ultrasonic bath) for one hour at room temperature. The samples were then centrifuged for 10 minutes at 16000×g, and the supernatant filtered through 0.45 μm syringe filter. Water solubilized PP1 and FF were subsequently processed for HPLC analysis (see Methods). Data represent average values with standard deviation (n=3). panel C: Effects of PP compounds on PPAR responsive elements (PPRE). The PPAR transcriptional activity was determined in HepG2 cells by the JsTkpGL3 reporter plasmid, which contains a firefly luciferase gene driven by the PPRE, which consists of three copies of the J site from the apo-AII gene promoter. To normalize for efficiency of transfection the cells were additionally transfected with the pSV40-GLuc (New England Biolabs, Ipswich, Mass.) control plasmid. […] The luciferase activity was detected with Dual-Luciferase reporter assay system (Promega, Madison, Wis.), and the resulting luminescence measured with Synergy 2 microplate reader (BioTek, Winooski, Vt.). Data represent average values with standard deviation (n=6).
PPAR Luciferase Assay—The PPAR transcriptional activity was determined by utilizing the JsTkpGL3 reporter plasmid, which contains a firefly luciferase gene driven by the PPAR responsive element (PPRE), which consists of three copies of the J site from the apo-AII gene promoter. Together with JsTkpGL3 plasmid HepG2 cells were transfected with pSV40-GLuc (New England Biolabs, Ipswich, Mass.) control plasmid expressing Gaussia luciferase under the control of the constitutive SV40 early promoter to normalize for efficiency of transfection. […] The luciferase activity was detected with Dual-Luciferase reporter assay system (Promega, Madison, Wis.), and the resulting luminescence measured with Synergy 2 microplate reader (BioTek, Winooski, Vt.).

[3] = test system: LN229 human glioblastoma cell line; assay: Cell viability (MTT assay), LN229; assay type: cell-based
[4] = Stability in human blood (HPLC); assay type: in vitro ADME; settings: 50 μM added, 48-hour incubation
Description: as §1, with “Water solubilized PP1 and FF were subsequently processed for HPLC analysis (see Methods). Data represent average values with standard deviation (n=3). panel C: Effects of PP compounds on PPAR responsive elements (PPRE).” left out, “promoter.” for “promoter. To normalize for efficiency of transfection the cells were additionally transfected with the pSV40-GLuc (New England Biolabs, Ipswich, Mass.) control plasmid.”, “Data represent average values with standard deviation (n=6).” left out
In this experiment, 50 μM of PP1 and 50 μM of FF were incubated with human blood at […], at indicated time points. […] In contrast, nearly 25 μM of PP1 was still detected at the 48-hour time point (FIG. 4A; left panel).

[5] = in vivo; cited from earlier work
[6] = Stability of stock solution in DMSO; assay type: physicochemical
LN-229 cells = assay: Cell morphology, peroxisome accumulation in LN-229; assay type: cell-based, human; settings: DMEM 1 g/L glucose, 10% FBS
From the text: Red arrows indicated accumulation of peroxisomes (black dot-like structures) around the nucleus in PP3-treated cells but not in control (DMSO). (LN229 cells, DMEM 1 g/L glucose 10% FBS P/S).

Structure (SMILES): CC(C)(Oc1ccc(C(=O)c2ccc(Cl)cc2)cc1)C(=O)N1CCC(N2CCOCC2)CC1 [PP4, 2-[4-(4-chlorobenzoyl)phenoxy]-2-methyl-1-[4-(morpholin-4-yl)piperidin-1-yl]propan-1-one]
- cell death [1]: extensive cell death
- effect on PPAR responsive elements (PPRE) [2]: attenuate

Structure (SMILES): CC(C)(Oc1ccc(C(=O)c2ccc(Cl)cc2)cc1)C(=O)N(CCO)CCO [H46]
- CV = Cell viability (% of control) ([3]; 1 μM, MTT): 103.00±2.98 % of control
- CV = Cell viability (% of control) ([3]; 5 μM, MTT): 86.15±8.50 % of control
- CV = Cell viability (% of control) ([3]; 10 μM, MTT): 51.97±10.27 % of control

Structure (SMILES): CC(C)OC(=O)C(C)(C)Oc1cccc(C(=O)c2ccccc2)c1 [HR7]
- anti-glioblastoma activity / relative potency ([3]; 25 μM, 72 hrs, MTT): virtually inactive

Structure (SMILES): CC(C)OC(=O)C(C)(C)Oc1ccc(C(=O)c2ccc(Cl)cc2)cc1 [FF, fenofibrate, reference compound]
- % cell death ([1]; 48 hours): 24+/−4%
- % cell death ([1]; 72 hours): 90+/−1%
- % cell death ([1]; 96 hrs): 99+/−1.2%
- conversion to FA in human blood [4]: almost all FF was converted to FA

Structure (SMILES): CC(C)(Oc1ccc(C(=O)c2ccc(F)cc2)cc1)C(=O)N1CCCCC1 [HR11]
- anti-glioblastoma activity / relative potency ([3]; 25 μM, 72 hrs, MTT): slightly higher biological activity

Structure (SMILES): CC(C)(Oc1ccc(C(=O)c2ccc(Cl)cc2)cc1)C(=O)NCCO [HR39]
- anti-glioblastoma activity / relative potency ([3]; 25 μM, 72 hrs, MTT): significantly less potent than PP1

Structure (SMILES): CN1CCN(C(=O)C(C)(C)Oc2ccc(C(=O)c3ccc(Cl)cc3)cc2)CC1.Cl [H35]
- CV = Cell viability (% of control) ([3]; 1 μM, MTT): 93.64±2.08 % of control
- CV = Cell viability (% of control) ([3]; 5 μM, MTT): 79.34±1.70 % of control
- CV = Cell viability (% of control) ([3]; 10 μM, MTT): 56.26±0.59 % of control

Structure (SMILES): CC(C)(Oc1ccc(C(=O)c2ccc(Cl)cc2)cc1)C(=O)NCC(O)CO (stereo not drawn) [HR42]
- anti-glioblastoma activity / relative potency ([3]; 25 μM, 72 hrs, MTT): almost identical

Structure (SMILES): CC(C)(Oc1ccc(C(=O)c2ccc(Cl)cc2)cc1)C(=O)N1CCC([NH+]2CCOCC2)CC1.[Cl-] [H38, 4-(1-{2-[4-(4-chlorobenzoyl)phenoxy]-2-methylpropanoyl}piperidin-4-yl)morpholin-4-iumchloride]
- CV = Cell viability (% of control) ([3]; 1 μM, MTT): 97.97±11.41 % of control
- CV = Cell viability (% of control) ([3]; 5 μM, MTT): 74.89±1.79 % of control
- CV = Cell viability (% of control) ([3]; 10 μM, MTT): 52.00±1.86 % of control

Structure (SMILES): CC(C)(Oc1ccc(C(=O)c2ccc(Cl)cc2)cc1)C(=O)N1CCC(N2CCOCC2)CC1 [HR37, 2-[4-(4-chlorobenzoyl)phenoxy]-2-methyl-1-[4-(morpholin-4-yl)piperidin-1-yl]propan-1-one]
- anti-glioblastoma activity / relative potency ([3]; 25 μM, 72 hrs, MTT): more potent than its hydrochloric salt (HR38)

Structure (SMILES): CC(C)(C)OC(=O)NCCCCNC(=O)C(C)(C)Oc1ccc(C(=O)c2ccc(Cl)cc2)cc1 [H28]
- CV = Cell viability (% of control) ([3]; 1 μM, MTT): 92.75±3.59 % of control
- CV = Cell viability (% of control) ([3]; 5 μM, MTT): 65.90±2.82 % of control
- CV = Cell viability (% of control) ([3]; 10 μM, MTT): 38.31±3.50 % of control

Structure (SMILES): CC(C)(Oc1ccc(C(=O)c2ccc(Cl)cc2)cc1)C(=O)NC(CO)CO [HR43]
- anti-glioblastoma activity / relative potency ([3]; 25 μM, 72 hrs, MTT): almost identical

Structure (SMILES): CC(C)(Oc1ccc(C(=O)c2ccc(Cl)cc2)cc1)C(=O)N1CC[N+](C)(C)CC1 [HR36, 4-{2-[4-(4-chlorobenzoyl)phenoxy]-2-methylpropanoyl}-1,1-dimethylpiperazin-1-ium iodide]
- viability at 25 µM ([3]; Homo sapiens, LN-229, 25 μM, 72 hrs, MTT, read-out: CV = Cell viability (% of control)): 98%

Structure (SMILES): CC(C)OC(=O)C(C)(C)Oc1ccc(C(=O)c2ccc(F)cc2)cc1 [HR8]
- anti-glioblastoma activity / relative potency ([3]; 25 μM, 72 hrs, MTT): virtually the same activity (CV) as FF

Structure (SMILES): CC(C)(Oc1ccc(C(=O)c2ccc(Cl)cc2)cc1)C(=O)O [FA, fenofibric acid]
- crossing of the blood brain tumor barrier (BBTB) [5]: do not cross

Structure (SMILES): CC(C)(Oc1ccc(C(=O)c2ccc(Cl)cc2)cc1)C(=O)N1CCC(O)CC1 [HR41]
- anti-glioblastoma activity / relative potency ([3]; 25 μM, 72 hrs, MTT): less potent than PP1

Structure (SMILES): CC(C)(Oc1ccc(C(=O)c2ccc(Cl)cc2)cc1)C(=O)NC(CO)(CO)CO [HR45]
- anti-glioblastoma activity / relative potency ([3]; 25 μM, 72 hrs, MTT): slightly decreases the potency

Structure (SMILES): CN(CCO)C(=O)C(C)(C)Oc1ccc(C(=O)c2ccc(F)cc2)cc1 [HR9]
- anti-glioblastoma activity / relative potency ([3]; 25 μM, 72 hrs, MTT): lower potency than PP1

Structure (SMILES): CN1CCN(C(=O)C(C)(C)Oc2ccc(C(=O)c3ccc(Cl)cc3)cc2)CC1 [PP2, 2-[4-(4-chlorobenzoyl)phenoxy]-2-methyl-1-(4-methylpiperazin-1-yl)propan-1-one]
- cell death [1]: extensive cell death
- effect on PPAR responsive elements (PPRE) [2]: attenuate

Structure (SMILES): CN(CC(O)C(O)C(O)C(O)CO)C(=O)C(C)(C)Oc1ccc(C(=O)c2ccc(Cl)cc2)cc1 [PP3, 2-[4-(4-chlorobenzoyl)phenoxy]-N,2-dimethyl-N-[(2S,3R,4R,5R)-2,3,4,5,6-pentahydroxyhexyl]propenamide]
- stability dissolved in DMSO [6]: quite unstable
- accumulation of peroxisomes (LN-229 cells): extensive accumulation of peroxisomes
- cytostatic effect ([1]; 10 μM): cytostatic activity
- effect on PPAR responsive elements (PPRE) [2]: does not repress PPAR responsive elements; also recorded: does not share this PPAR-inhibitory activity

Structure (SMILES): CC(Oc1ccc(C(=O)c2ccc(Cl)cc2)cc1)C(=O)N1CCC(O)CC1 (stereo not drawn) [HR21]
- cell death ([3]; 25 μM, 72 hrs): about 60%

Structure (SMILES): CC(Oc1ccc(C(=O)c2ccc(Cl)cc2)cc1)C(=O)N1CCCCC1 (stereo not drawn) [HR22]
- cell death ([3]; 25 μM, 72 hrs): about 60%

Structure (SMILES): CC(C)(Oc1ccc(C(=O)c2ccc(Cl)cc2)cc1)C(=O)Nc1ccccc1O [HR49, 2-(4-(4-chlorobenzoyl)phenoxy)-N-(2-hydroxyphenyl)-2-methylpropanamide]
- anti-glioblastoma activity / relative potency ([3]; 25 μM, 72 hrs, MTT): more potent than HR48
- IC50 ([3]; Homo sapiens, LN-229, LN229, read-out: IC50 concentration): < 10 µM

Structure (SMILES): CC(C)(Oc1ccc(C(=O)c2ccc(Cl)cc2)cc1)C(=O)N(CCO)CCO [HR46]
- anti-glioblastoma activity / relative potency ([3]; 25 μM, 72 hrs, MTT): almost as potent as PP1

Structure (SMILES): CC(C)(Oc1ccc(C(=O)c2ccc(Cl)cc2)cc1)C(=O)N1CCC(N2CCOCC2)CC1 [H37, 2-[4-(4-chlorobenzoyl)phenoxy]-2-methyl-1-[4-(morpholin-4-yl)piperidin-1-yl]propan-1-one]
- CV = Cell viability (% of control) ([3]; 1 μM, MTT): 109.20±5.73 % of control
- CV = Cell viability (% of control) ([3]; 5 μM, MTT): 75.02±1.42 % of control
- CV = Cell viability (% of control) ([3]; 10 μM, MTT): 47.02±1.23 % of control

Structure (SMILES): CN(CC(O)CO)C(=O)C(C)(C)Oc1ccc(C(=O)c2ccc(Cl)cc2)cc1 (stereo not drawn) [HR44]
- anti-glioblastoma activity / relative potency ([3]; 25 μM, 72 hrs, MTT): more potent than the secondary amide HR39

Structure (SMILES): CC(C)(Oc1ccc(C(=O)c2ccc(Cl)cc2)cc1)C(=O)NCCCCN [HR31]
- anti-glioblastoma activity / relative potency ([3]; 25 μM, 72 hrs, MTT): CV value similar to that of 25 μM FF

Structure (SMILES): CC(C)OC(=O)C(C)(C)Oc1ccc(C(=O)c2ccccc2)cc1 [HR6]
- anti-glioblastoma activity / relative potency ([3]; 25 μM, 72 hrs, MTT): virtually inactive

Structure (SMILES): CN1CCN(C(=O)C(C)(C)Oc2ccc(C(=O)c3ccc(Cl)cc3)cc2)CC1.Cl [HR35, 4-{2-[4-(4-chlorobenzoyl)phenoxy]-2-methylpropanoyl}6-8,13-20,24-26,28,34,38-1-methylpiperazin-1-ium chloride]
- anti-glioblastoma activity / relative potency ([3]; 25 μM, 72 hrs, MTT): more potent than its free base HR34
